Measurements taken from patent publication US9487752B2, “Priming of pluripotent stem cells for neural differentiation” (Cellular Dynamics International, Inc., priority 2011, dated 2016).

What was measured:
Assay type in all cases: cell-based
iPSC line (2.042) = experiment: Neural differentiation of iPSC line 2.042, neuron purity by βIII-tubulin/Nestin double stains; details: only one of 10 μM SB-431542 or 1 μM dorsomorphin in medium on Days −2, −1, 0 and 1; Day 28 (FIG. 3C)
iPS cell line 8004 [1] = experiment: Astrocyte purity of iPS cell line 8004 cultures by flow cytometry using GFAP as marker; details: 10 μM SB-431542 on Days −2, −1, 0, and 1; fed 10% FBS from Day 30; Day 48
Experimental: (§1) iPS cell line 8004 was differentiated using the procedure of Example 3 with and without 10 μM SB-431542 added to culture medium on Days −2, −1, 0, and 1. On Day 28, neuron purity as determined by TUJ1/Nestin flow cytometry staining was 80% without SB-431542 and 97% with SB-431542. Beginning on Day 30 of the. procedure, cells were fed 90% 1× DMEM-F12/10% FBS every 7 days. Astrocyte outgrowth was first detected on Day 45. On Day 48, cultures were assayed by flow cytometry for astrocyte purity using GFAP as a marker for astrocytes. […] In summary, the methods detailed herein provide for a method to produce cultures of high purity astrocytes in a time efficient manner relative to existing astrocyte differentiation methods.

iPS cell line 8004 [2] = experiment: Neuron purity of iPS cell line 8004 by TUJ1/Nestin flow cytometry staining; details: 10 μM SB-431542 on Days −2, −1, 0, and 1; Day 28
Experimental: as §1

iPSC line 1729c4 = experiment: Neural differentiation of iPSC line 1729c4, purity by flow cytometry with βIII-tubulin/Nestin double stains; details: 10 ng/mL FGF8 present on Day −3; Day 27
Source text: iPS cells were maintained on Matrigel in TeSR medium (Stem Cell Technologies) and sodium citrate split one passage prior to aggregate formation and grown in T150 flasks, but can be scaled for starting cells in other culture formats. Alternate pluripotent cell culture media (such as E8 media: Chen et al., 2011), containing varying concentrations of TGFβ and/or bFGF, can be used to optimize neural differentiation of different iPS cell lines or clones. Pluripotent cell cultures were then “primed” for differentiation three or four days prior to aggregate formation. […]
On Day 0 of the neuron differentiation process (specifically, aggregate formation), cells are harvested from T150 flasks (up to five flasks at one time) and, after media is aspirated, 12 mL of warm TrypLE is added to each flask and the cells are incubated at 37° C. for 7 minutes. […] The tubes may be combined and cells are counted (CEDEX HiRES cell counter). […] Diluted cell stock is counted (CEDEX HiRES cell counter). […]

## NC(=O)c1ccc(-c2nc(-c3ccc4c(c3)OCO4)c(-c3ccccn3)[nH]2)cc1 [SB-431542]
iPSC line (2.042)
  neuron purity by βIII-tubulin/Nestin double stains compared to both inhibitors: similarly high neuron purities
iPS cell line 8004 [1]
  GFAP positive cells (astrocyte purity): 56%
iPS cell line 8004 [2]
  neuron purity by TUJ1/Nestin flow cytometry staining: 97%

B1: FGF8: fibroblast growth factor 8, reported as an endogenous neural inducer (protein, UniProt P55075 23-233, looked up)
Fibroblast growth factor 8: QEGPGRGPALGRELASLFRAGREPQGVSQQHVREQSLVTDQLSRRLIRTYQLYSRTSGKHVQVLANKRINAMAEDGDPFAKLIVETDTFGSRVRVRGAETGLYICMNKKGKLIAKSNGKGKDCVFTEIVLENNYTALQNAKYEGWYMAFTRKGRPRKGSKTRQHQREVHFMKRLPRGHHTTEQSLRFEFLNYPPFTRSLRGSQRTWAPEPR
iPSC line 1729c4
  βIII-tubulin/Nestin positive cells: 90%
